{
  "source": "paper PMC11396667",
  "about": "“Design, Synthesis, and Anticancer and Antibacterial Activities of Quinoline-5-Sulfonamides” (Molecules, 2024)",
  "key": {"[1]": {"test_system": "C-32, A549, MDA-MB-231 and HFF-1 cells", "experiment": "Crystal violet, WST-1 and LDH assays of 3c", "format": "cell-based", "conditions": "3c in medium above 0.3 µM, 72 h; particularly in A549 and MDA-MB-231 cells", "protocol": "The effect of the compound on cell viability was determined using, in addition to the WST-1 assay, the crystal violet assay and the LDH (lactate dehydrogenase) assay. Furthermore, a wound healing test (indicator of cell proliferation and migration capacity) and assessment of gene expression (in the transcription phase) of BCL-2, BAX, TP53, P21, and H3 were performed.\nAn increase in the number of dead cells is shown by the absorbance line in the LDH test.\nCells were seeded in 96-well plates at 5000/well in 100 μL of medium. After 24 h of incubation, the medium was replaced with a new one with the addition of the test substance. […]\nCrystal violet test: The crystal violet (Sigma-Aldrich, Darmstadt, Germany) test determines the relative number of cells based on the amount of dye bound to the DNA of cells in the culture. The absorbance measurement was performed at a wavelength of λ = 540 nm (reference wavelength λ = 690 nm).\nWST-1 test: The WST-1 test (Roche Diagnostics, Mannheim, Germany) allows one to determine the relative number of cells in cultures. Absorbance is directly proportional to the number of cells and their metabolic activity. The absorbance measurement is performed at λ = 450 nm (reference wave 600 nm). […]"}, "[2]": {"test_system": "H3, BCL-2, BAX, P21, and P53 genes in C-32, A549, MDA-MB-231, and HFF-1 cells", "experiment": "Transcriptional activity by RT-QPCR", "format": "cell-based, human", "conditions": "36 µM in medium, 24 h", "protocol": "The study investigated the effect of compound 3c on the transcriptional activity of genes encoding a proliferation marker (histone H3), cell cycle regulators (P53 and P21), and genes encoding proteins involved in the mitochondrial apoptosis pathway (BCL-2 and BAX) in C-32, A549, MDA-MB-231, and HFF-1 cells. Cultures were exposed to 3c at a concentration of 36 µM in medium for 24 h.\nThe transcriptional activity of the following genes was assessed: H3 (a gene encoding histone H3, a proliferation marker), BCL-2 and BAX (genes encoding BCL-2 and BAX proteins, respectively; both are mitochondrial proteins associated with apoptosis), and P21 and P53 (cell cycle regulators). Activity was assessed by RT-QPCR using the CFX96 Touch Real-Time PCR Detection System (BIO-RAD Hercules, CA, USA) and a SensiFAST^TM SYBR^R No-ROX One-Step Kit (Meridian Bioscience, Memphis, TN, USA). Cultured cells were exposed (for 24 h) to the tested compounds (0.5 µg/mL). RNA was extracted using Quick-RNA™ MiniPrep kit columns (Zymo Research, Irvine, CA, USA). The extracted RNA was assessed qualitatively and quantitatively. The integrity of total RNA was checked by electrophoresis (1.2% agarose gel, EtBr), and the amount and purity of total RNA in the extracts was determined spectrophotometrically (HP8452A apparatus, Hewlett Packard, Waldbronn, Germany)."}},
  "data": [
    {"smiles": "C#CCN(C)S(=O)(=O)c1ccc(O)c2ncccc12", "note": "[3c, 8-Hydroxy-N-methyl-N-(prop-2-yn-1-yl)quinoline-5-sulfonamide]", "values": [
      {"measurement": "cell number in cultures (cell viability and cytotoxicity assays)", "setting": "[1]", "result": "significant decrease in cell number"},
      {"measurement": "BCL-2/BAX ratio (ratio of gene copy numbers)", "setting": "[2]", "result": "in favor of BAX"},
      {"measurement": "transcriptional activity of P21", "setting": "[2]", "result": "increase in the transcriptional activity"},
      {"measurement": "transcriptional activity of P53", "setting": "[2]", "result": "increase in the transcriptional activity"},
      {"measurement": "H3 expression (proliferation marker)", "setting": "[2]; all the cultures", "result": "reduction in H3 expression"}
    ]}
  ]
}
